Data on 32 compounds can be found in ChEMBL document CHEMBL4651402, “Screening of ~5500 FDA-approved drugs and clinical candidates for anti-SARS-CoV-2 activity” (2021).

Where only a bound is given, the exact number is not on record here.

One experiment deals with SARS-CoV-2. The experiment can be described thus: microbe, parasite or virus in culture. The note with it: Severe acute respiratory syndrome coronavirus 2, Vero C1008, 48 h.
In turn, `CC(C)(CO)C(=O)SCCOP(=O)(NCc1ccccc1)OC[C@H]1O[C@@H](n2cnc3c(=O)[nH]c(N)nc32)[C@](C)(O)[C@@H]1O` (some centres undefined) came in with an IC50 greater than 20 µM.
In turn, `CCOC(=O)c1ccccc1OC(=O)CCCCCCCC(=O)Oc1ccccc1C(=O)OCC` displayed an IC50 greater than 20 µM.
Compound `COc1cc(Nc2ncc3c(n2)-c2ccc(Cl)cc2C(c2c(F)cccc2OC)=NC3)ccc1C(=O)O` [ALISERTIB] came in with an IC50 greater than 20 µM.
The same measure, in the same setting: the same measure for `CC(O)(P(=O)(O)O)P(=O)(O)O` [ETIDRONIC ACID]: greater than 20 µM.
Take `CCC1(c2ccccc2)C(=O)NCNC1=O` [PRIMIDONE]: the IC50 was greater than 20 µM.
With `NC(=O)N=NC(N)=O`, the IC50 was greater than 20 µM.
In the case of `CN(Cc1cc(Br)cc(Br)c1N)C1CCCCC1` [BROMHEXINE], the IC50 is greater than 20 µM.
`CCc1cc(/C(C)=N/OCc2ccc(C3CCCCC3)c(C(F)(F)F)c2)ccc1CN1CC(C(=O)O)C1` [SIPONIMOD] returned an IC50 greater than 20 µM.
On the same count and under the same terms, then `Cc1ccc2c(Cl)cc(Cl)c(O)c2n1` [CHLORQUINALDOL], with greater than 20 µM; and `CC(=O)OC1CCC2C3CCC4C/C(=N\Oc5ccc([N+](=O)[O-])cc5)C(Cl)CC4(C)C3CCC12C` (centres undefined), with greater than 20 µM; and `NC(=O)CN1Cc2ccccc2OC1=O` [CAROXAZONE], with greater than 20 µM.
In turn, `CN(C)N=Nc1ccc(C(=O)O)cc1` came in with an IC50 greater than 20 µM.
With `C[N+](C)(Cc1ccc(NC(=O)c2ccc(Cl)c(Cl)c2)cc1)C1CCOCC1` [JNJ-17166864 CATION], the IC50 is greater than 20 µM.
Take `COc1ccc(CN(CCN(C)C)c2ccccn2)cc1` [PYRILAMINE]: the IC50 was greater than 20 µM.
Compound `CN1CCN2c3ncccc3Cc3ccccc3C2C1` (centres undefined) [MIRTAZAPINE] yielded an IC50 greater than 20 µM.
Regarding `CCOC(=O)c1ccc(C#Cc2ccc3c(c2)C(C)(C)CCS3)nc1` [TAZAROTENE], the IC50 was greater than 20 µM.
The compound `CCn1c(=Cc2cccc[n+]2CC)sc(=C2Sc3ccccc3N2C)c1=O` displayed an IC50 greater than 20 µM.
In turn, `CCCN1CCC[C@@H](c2cccc(O)c2)C1` [PRECLAMOL] had an IC50 greater than 20 µM.
Compound `COc1ccc(N(C)c2nc(C)nc3ccccc23)cc1` [VERUBULIN] registered an IC50 greater than 20 µM.
In the case of `CC(=O)NCCCCCC(=O)O` [ACEXAMIC ACID], the IC50 is greater than 20 µM.
On the same count and under the same terms, the same measure for `O=S(=O)(O)c1ccc2[nH]c(-c3ccccc3)nc2c1` [ENSULIZOLE]: greater than 20 µM.
The compound `C#CCN/C(=N\C#N)NCCSCc1nc[nH]c1C` [ETINTIDINE] registered an IC50 greater than 20 µM.
`NC(=O)N1c2ccccc2C2OC2c2ccccc21` (centres undefined) [CARBAMAZEPINE EPOXIDE]: the IC50 was greater than 20 µM.
In the case of `N=C(N)NC(=N)NCCc1ccccc1` [PHENFORMIN], the IC50 was greater than 20 µM.
`NC1(C(=O)O)CC1` [1-Aminocyclopropane carboxylic acid] showed an IC50 greater than 20 µM.
Still for that read-out and setting: the same measure for `CNC(=N)NCCC[C@H](N)C(=O)O` [TILARGININE]: greater than 20 µM; for `CCC(C)SSc1ncc[nH]1` (centres undefined) [PX-12]: greater than 20 µM; for `C#C[C@]1(O)CC[C@H]2[C@@H]3CCC4=Cc5oncc5C[C@]4(C)[C@H]3CC[C@@]21C` [DANAZOL]: greater than 20 µM.
Compound `CCN(CC)CCc1nc(-c2ccccc2)no1` [OXOLAMINE] had an IC50 greater than 20 µM.
`CC(=O)OCC(=O)[C@@]1(O)CC[C@H]2[C@@H]3CCC4=CC(=O)C=C[C@]4(C)[C@@]3(Cl)[C@@H](Cl)C[C@@]21C` [DICHLORISONE ACETATE] showed an IC50 greater than 20 µM.
As for `C=C(C)[C@@H]1CC[C@]2(CO)CC[C@]3(C)[C@H](CC[C@@H]4[C@@]5(C)CC[C@H](O)C(C)(C)[C@@H]5CC[C@]43C)[C@@H]12` [BETULIN], the IC50 was greater than 20 µM.
`CC(=O)O[C@@H]1CC2(C)C(C(C)=O)CCC2C2CCC3=CC(=O)CCC3(C)C21` (some centres undefined) yielded an IC50 greater than 20 µM.

Staying with this experiment, now noted: Severe acute respiratory syndrome coronavirus 2, Vero C1008, 48 h, read-out: pIC50 (converted).
Consider `CC(C)(CO)C(=O)SCCOP(=O)(NCc1ccccc1)OC[C@H]1O[C@@H](n2cnc3c(=O)[nH]c(N)nc32)[C@](C)(O)[C@@H]1O` (some centres undefined), for which the IC50 is greater than 20 µM.
Still for that read-out and setting: the same measure for `CCOC(=O)c1ccccc1OC(=O)CCCCCCCC(=O)Oc1ccccc1C(=O)OCC`: greater than 20 µM; for `COc1cc(Nc2ncc3c(n2)-c2ccc(Cl)cc2C(c2c(F)cccc2OC)=NC3)ccc1C(=O)O` [ALISERTIB]: greater than 20 µM.
For `CC(O)(P(=O)(O)O)P(=O)(O)O` [ETIDRONIC ACID], the IC50 is greater than 20 µM.
`CCC1(c2ccccc2)C(=O)NCNC1=O` [PRIMIDONE]: the IC50 is greater than 20 µM.
For the compound `NC(=O)N=NC(N)=O`, the IC50 was greater than 20 µM.
Take `CN(Cc1cc(Br)cc(Br)c1N)C1CCCCC1` [BROMHEXINE]: the IC50 is greater than 20 µM.
The same measure, in the same setting: then `CCc1cc(/C(C)=N/OCc2ccc(C3CCCCC3)c(C(F)(F)F)c2)ccc1CN1CC(C(=O)O)C1` [SIPONIMOD], with greater than 20 µM; and `Cc1ccc2c(Cl)cc(Cl)c(O)c2n1` [CHLORQUINALDOL], with greater than 20 µM.
As to `CC(=O)OC1CCC2C3CCC4C/C(=N\Oc5ccc([N+](=O)[O-])cc5)C(Cl)CC4(C)C3CCC12C` (centres undefined), the IC50 was greater than 20 µM.
For the compound `NC(=O)CN1Cc2ccccc2OC1=O` [CAROXAZONE], the IC50 was greater than 20 µM.
Take `CN(C)N=Nc1ccc(C(=O)O)cc1`: the IC50 is greater than 20 µM.
With `C[N+](C)(Cc1ccc(NC(=O)c2ccc(Cl)c(Cl)c2)cc1)C1CCOCC1` [JNJ-17166864 CATION], the IC50 is greater than 20 µM.
Take `COc1ccc(CN(CCN(C)C)c2ccccn2)cc1` [PYRILAMINE]: the IC50 is greater than 20 µM.
Regarding `CN1CCN2c3ncccc3Cc3ccccc3C2C1` (centres undefined) [MIRTAZAPINE], the IC50 was greater than 20 µM.
For the compound `CCOC(=O)c1ccc(C#Cc2ccc3c(c2)C(C)(C)CCS3)nc1` [TAZAROTENE], the IC50 was greater than 20 µM.
Regarding `CCn1c(=Cc2cccc[n+]2CC)sc(=C2Sc3ccccc3N2C)c1=O`, the IC50 is greater than 20 µM.
Take `CCCN1CCC[C@@H](c2cccc(O)c2)C1` [PRECLAMOL]: the IC50 is greater than 20 µM.
In the case of `COc1ccc(N(C)c2nc(C)nc3ccccc23)cc1` [VERUBULIN], the IC50 is greater than 20 µM.
For the compound `CC(=O)NCCCCCC(=O)O` [ACEXAMIC ACID], the IC50 was greater than 20 µM.
Turning to `O=S(=O)(O)c1ccc2[nH]c(-c3ccccc3)nc2c1` [ENSULIZOLE], the IC50 was greater than 20 µM.
Same read-out and setting: the same measure for `C#CCN/C(=N\C#N)NCCSCc1nc[nH]c1C` [ETINTIDINE]: greater than 20 µM; for `NC(=O)N1c2ccccc2C2OC2c2ccccc21` (centres undefined) [CARBAMAZEPINE EPOXIDE]: greater than 20 µM; for `N=C(N)NC(=N)NCCc1ccccc1` [PHENFORMIN]: greater than 20 µM.
Regarding `NC1(C(=O)O)CC1` [1-Aminocyclopropane carboxylic acid], the IC50 was greater than 20 µM.
On to `CNC(=N)NCCC[C@H](N)C(=O)O` [TILARGININE], for which the IC50 was greater than 20 µM.
Take `CCC(C)SSc1ncc[nH]1` (centres undefined) [PX-12]: the IC50 is greater than 20 µM.
With `C#C[C@]1(O)CC[C@H]2[C@@H]3CCC4=Cc5oncc5C[C@]4(C)[C@H]3CC[C@@]21C` [DANAZOL], the IC50 was greater than 20 µM.
On to `CCN(CC)CCc1nc(-c2ccccc2)no1` [OXOLAMINE], for which the IC50 was greater than 20 µM.
For `CC(=O)OCC(=O)[C@@]1(O)CC[C@H]2[C@@H]3CCC4=CC(=O)C=C[C@]4(C)[C@@]3(Cl)[C@@H](Cl)C[C@@]21C` [DICHLORISONE ACETATE], the IC50 is greater than 20 µM.
Consider `C=C(C)[C@@H]1CC[C@]2(CO)CC[C@]3(C)[C@H](CC[C@@H]4[C@@]5(C)CC[C@H](O)C(C)(C)[C@@H]5CC[C@]43C)[C@@H]12` [BETULIN], for which the IC50 is greater than 20 µM.
On to `CC(=O)O[C@@H]1CC2(C)C(C(C)=O)CCC2C2CCC3=CC(=O)CCC3(C)C21` (some centres undefined), for which the IC50 was greater than 20 µM.
